Test results from patent US7164021B2, “Opiate analogs selective for the δ-opioid receptor” (The Curators of The University of Missouri, priority 2002, dated 2007).

Columns and labels:
mu receptor = mu receptor (Homo sapiens, UniProt P35372); test: Competitive analysis vs 3H-Bremazocine, mu receptor; format: binding
κ receptor [1] = target: κ receptor (Homo sapiens, UniProt P41145); test: Competitive analysis vs 3H-Bremazocine, κ receptor; format: binding; conditions: reference compound 3H-Bremazocine
delta receptor = delta receptor (Homo sapiens, UniProt P41143); test: Competitive analysis vs 3H-Bremazocine, delta receptor; format: binding
δ receptor = δ receptor (Mus musculus, UniProt P32300); conditions: experimental value of the reference opioid; cited from earlier work
κ receptor [2] = target: κ receptor (Mus musculus, UniProt P33534); conditions: experimental value of the reference opioid; cited from earlier work
μ receptor = μ receptor (Rattus norvegicus, UniProt P33535); conditions: experimental value of the reference opioid; cited from earlier work

Row | SMILES | % Inhibition μ (mu receptor) | Ki (mu receptor; competitive analysis, 1.64 nM 3H-Bremazocine, dose response curve FIG. 7B, read-out: Representative Ki μ) | % Inhibition κ (κ receptor [1]) | Ki (delta receptor; competitive analysis, 1.64 nM 3H-Bremazocine, dose response curve FIG. 7A, read-out: Representative Ki δ (delta binding affinity)) | % Inhibition δ (delta receptor; competitive analysis, reference compound 3H-Bremazocine) | delta/mu selectivity (delta receptor; ratio delta vs mu binding) | experimental affinity δ receptor (value in parenthesis) (δ receptor) | experimental affinity κ receptor (value in parenthesis) (κ receptor [2]) | experimental affinity μ receptor (value in parenthesis) (μ receptor)
1 | Oc1cccc(-n2cnnc2-c2cccc(-c3ccccc3)c2)c1 [DST3-2] | 84% | 1000 nM | 42% | 140 nM | 84% | 10/1 | – | – | –
2 | Oc1ccc2c3c1O[C@H]1c4[nH]c5ccccc5c4C[C@@]4(O)[C@@H](C2)N(CC2CC2)CC[C@]314 [NTI, naltrindole] | – | – | – | – | – | – | 10.70 | 7.18 | –
3 | CN1CC[C@]23c4c5ccc(O)c4OC2C(=O)C2(Cc4ccccc4C2)C[C@@]3(O)C1C5 (some centres unmarked) [SIOM, spiroindanyloxymorphone] | – | – | – | – | – | – | 8.77 | < 6.00 | 7.48
